Values quoted from earlier work as cited in patent US11851709B2, “HER2 as a predictor of response to dual HER2 blockade in the absence of cytotoxic therapy” (FUNDACIÓ PRIVADA INSTITUT D'INVESTIGACIÓ ONCOLÓGICA DE VALL …, priority 2016, dated 2023).

Key:
HER2+ breast cancer = details: at 4.5-years; added to adjuvant trastuzumab and chemotherapy; statistically non-significant
[1] = tested on: node-positive breast cancer; details: interaction between HER2 positivity and addition of paclitaxel; P=0.01

Structure (SMILES) | absolute benefit in DFS (HER2+ breast cancer) | hazard ratio for recurrence [1]
CS(=O)(=O)CCNCc1ccc(-c2ccc3ncnc(Nc4ccc(OCc5cccc(F)c5)c(Cl)c4)c3c2)o1 [lapatinib] | ~2% | 
CC(=O)O[C@H]1C(=O)[C@@]2(C)[C@H]([C@H](OC(=O)c3ccccc3)[C@]3(O)C[C@H](OC(=O)[C@H](O)[C@@H](NC(=O)c4ccccc4)c4ccccc4)C(C)=C1C3(C)C)[C@]1(OC(C)=O)CO[C@@H]1C[C@@H]2O [paclitaxel] |  | 0.59
